This is an account of results in paper PMC12114297 (Molecules, 2025).

Structures are written as SMILES. Converted amounts (≈) assume the structure as drawn. Read-outs that look alike come from different tables or passages of the source.

Assay [1] relates to Staphylococcus aureus ATCC 25923. Put plainly: Agar well diffusion, S. aureus. It is filed as cell-based. To be noted: for zone of inhibition at 1000 µg/mL: Staphylococcus aureus; for Antibacterial activity in words: agar well diffusion, particularly S. aureus. The protocol: (§1) The antimicrobial potential of the synthesized coumarin–triazole–isatin hybrids was evaluated by the agar well diffusion method. The activity was tested against a variety of Gram-positive bacteria (Staphylococcus aureus ATCC 25923 and ATCC 902710, Staphylococcus epidermidis ATCC 12228, Streptococcus pyogenes ATCC 19615, Enterococcus faecalis ATCC 51299), Gram-negative bacteria (Escherichia coli ATCC 25922, Haemophilus influenzae ATCC 49766, Pseudomonas aeruginosa ATCC 27853, Salmonella typhi ATCC 14028, Neisseria meningitidis ATCC 13090, Neisseria gonorrhoeae ATCC 43069), and fungi (Candida albicans ATCC 60193 and ATCC 90028, Candida orientalis ATCC 6258). All microbial strains were obtained from Microbiologics (St.Cloud, MN, USA).
(§2) The test compounds were dissolved in DMSO to obtain stock solutions (1 mg/mL). Each compound (60 µL) was transferred into wells (6 mm in diameter) that were previously perforated into agar plates inoculated with microbial suspensions standardized to 0.5 McFarland for bacteria and 2 McFarland for Candida spp. DMSO was used as a negative control, while commercial antibiotic disks of novobiocin (5 μg), ampicillin (10 μg), and ciprofloxacin (5 μg) served as positive controls. Antimicrobial activity was assessed by measuring the diameter of zones of inhibition (ZOIs) in millimeters. All tests were conducted in triplicate.
(In agar diffusion tests the substance spreads into inoculated agar from a disc or well.)

Assay [2] relates to Staphylococcus epidermidis ATCC 12228. Put plainly: Agar well diffusion, S. epidermidis. Format: cell-based. To be noted: ATCC12228, read-out: Staphylococcus epidermidis ATCC 12228 ZOI, 60 µL of 1 mg/mL per well, ZOI including the well (6 mm), ± SD, n = 3, ciprofloxacin disk 5 μg. As for the experimental part: as §1, §2
The test system of assay [3] is S. aureus ATCC 25923. Put plainly: MIC by agar dilution, S. aureus. It is filed as cell-based. The following applies: Staphylococcus aureus, ATCC25923, 0.39–200 μg/mL, read-out: MIC against S. aureus.
The subject of assay [4] is S. epidermidis ATCC 12228. As to the kind of experiment: MIC by agar dilution, S. epidermidis. To be noted: Staphylococcus epidermidis, ATCC12228, 0.39–200 μg/mL, read-out: MIC against S. epidermidis. It is filed as cell-based. For orientation: In agar dilution the substance is mixed into plates at graded concentrations.
For assay [5], the target named is T1, BChE from equine serum (eqBuChE) (Equus caballus, UniProt P81908).
T1 construct: BChE from equine serum (BChE, EC 3.1.1.8); purchased Sigma-Aldrich (St. Louis, MO, USA); host or cells: equine serum
T1 sequence (P81908 whole entry): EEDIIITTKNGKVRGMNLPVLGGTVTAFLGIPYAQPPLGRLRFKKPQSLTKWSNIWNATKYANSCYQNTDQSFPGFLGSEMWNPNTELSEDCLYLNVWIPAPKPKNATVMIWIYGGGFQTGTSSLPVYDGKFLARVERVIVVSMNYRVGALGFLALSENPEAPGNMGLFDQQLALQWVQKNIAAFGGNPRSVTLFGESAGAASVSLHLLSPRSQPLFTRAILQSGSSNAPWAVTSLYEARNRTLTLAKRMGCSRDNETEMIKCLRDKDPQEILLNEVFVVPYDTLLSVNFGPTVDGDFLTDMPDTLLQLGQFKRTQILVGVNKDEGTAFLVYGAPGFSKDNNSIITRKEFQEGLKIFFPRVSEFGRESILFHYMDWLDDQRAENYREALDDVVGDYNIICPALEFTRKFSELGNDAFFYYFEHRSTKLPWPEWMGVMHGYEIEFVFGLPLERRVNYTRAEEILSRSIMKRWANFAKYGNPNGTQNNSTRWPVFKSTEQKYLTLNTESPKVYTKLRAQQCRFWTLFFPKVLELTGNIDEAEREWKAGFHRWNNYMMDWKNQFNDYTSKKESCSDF
Put plainly: biochemical. To be noted: for inhibition at 20 µM: read-out: BChE % of Inhibition (Conc. 20 μM), 20 μM; for inhibition at 20 µM / IC50: average ± standard error (n = 3); for Selectivity BChE/AChE: ratio of AChE and BChE IC50. As for the experimental part: The in vitro cholinesterase inhibitory activity of the synthesized hybrid molecules was evaluated using a modified Ellman’s assay, optimized for 96-well microplate application. AChE from Electrophorus electricus (AChE, EC 3.1.1.7), BChE from equine serum (BChE, EC 3.1.1.8), acetylthiocholine iodide (ATCh), butyrylthiocholine iodide (BTCh), and 5,5′-dithiobis(2-nitrobenzoic acid) were purchased from Sigma-Aldrich (St. Louis, MO, USA) and used without further purification.
Test compounds were initially dissolved in dimethylsulphoxide (DMSO) to yield 1 mM stock solutions and subsequently diluted with 0.1 M phosphate buffer (pH 8.0) to prepare working solutions.
For the assay, 20 µL of compound solution was added to 140 µL of 0.1 M phosphate buffer (pH 8.0) in each well, followed by 20 µL of enzyme solution (AChE or BuChE, 100 U/L). After incubation at room temperature for 10 min, the reaction was initiated by adding 10 µL of DTNB (0.01 M) and 10 µL of substrate (ATCh or BTCh, 0.015 M). […] The percentage inhibition of enzyme activity was calculated using the following equation:(1) % Inhibition=Absorbance of control−Apsorbance of sample/Absorbance of control×100 where the absorbance of the control represents the maximum enzyme activity (without inhibition), and the absorbance of the sample corresponds to the enzyme activity in the presence of the tested compound. Appropriate blanks were included to account for background absorbance and to correct for any intrinsic color of the tested compounds.
All experiments were performed in triplicate.

Assay [6] concerns the target T2, AChE from Electrophorus electricus (eeAChE) (Electrophorus electricus, UniProt O42275).
T2 construct: purchased Sigma-Aldrich (St. Louis, MO, USA)
As to the kind of experiment: biochemical. The following applies: for inhibition at 20 µM: read-out: AChE % of Inhibition (Conc. 20 μM); for IC50: average ± standard error (n = 3).

Assay [7] concerns the target T3, BChE (Equus caballus, UniProt P81908).
T3 construct: BChE from equine serum (BChE, EC 3.1.1.8); purchased Sigma-Aldrich (St. Louis, MO, USA); host or cells: equine serum
Put plainly: Type of enzyme inhibition, Lineweaver–Burk plot. Format: biochemical, equine. As for the experimental part: The concentrations of substrate and inhibitor used in the assay are given in Section 3.3.1.
The type of enzyme inhibition was assessed using Lineweaver–Burk plots, which represent a linear transformation of the Michaelis–Menten equation. This method enables visual classification of inhibition type by plotting the reciprocal of the initial reaction velocity (1/Vo) against the reciprocal of the substrate concentration (1/[S]).
The intersection pattern of the fitted lines was used to identify the inhibition mechanism. All tests were replicated three times.

Where [8] appears, read: ATCC25923, 60 µL of 1 mg/mL per well, ZOI including the well (6 mm), ± SD, n = 3, ciprofloxacin disk 5 μg, read-out: Staphylococcus aureus ATCC 25923 ZOI.

T2 sequence (O42275 24-633): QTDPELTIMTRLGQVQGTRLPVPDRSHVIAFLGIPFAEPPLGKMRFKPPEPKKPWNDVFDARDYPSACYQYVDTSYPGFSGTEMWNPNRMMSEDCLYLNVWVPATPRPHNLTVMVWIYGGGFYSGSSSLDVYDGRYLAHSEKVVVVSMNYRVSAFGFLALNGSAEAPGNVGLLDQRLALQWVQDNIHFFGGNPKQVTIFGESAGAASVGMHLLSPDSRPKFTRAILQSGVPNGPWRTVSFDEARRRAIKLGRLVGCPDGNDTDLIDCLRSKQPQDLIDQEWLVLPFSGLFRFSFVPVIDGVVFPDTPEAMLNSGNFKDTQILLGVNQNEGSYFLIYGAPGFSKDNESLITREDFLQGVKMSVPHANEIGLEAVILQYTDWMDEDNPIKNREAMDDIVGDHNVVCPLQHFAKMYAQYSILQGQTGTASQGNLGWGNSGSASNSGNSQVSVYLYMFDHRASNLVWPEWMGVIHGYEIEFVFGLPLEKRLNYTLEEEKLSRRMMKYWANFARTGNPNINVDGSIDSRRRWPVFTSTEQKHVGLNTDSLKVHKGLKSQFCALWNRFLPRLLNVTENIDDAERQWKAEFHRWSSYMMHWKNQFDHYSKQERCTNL
T3 sequence (P81908 whole entry): as the sequence (P81908 whole entry) above

Turning to `O=C(O)c1cn(C2CC2)c2cc(N3CCNCC3)c(F)cc2c1=O` [Ciprofloxacine, ciprofloxacin, reference compound], the “Staphylococcus aureus ATCC 25923 ZOI” value in assay [1] (60 µL of 1 mg/mL per well, ZOI including the well (6 mm), ± SD, n = 3, ciprofloxacin disk 5 μg) turned out to be 27.00 ± 1.62 mm. For the same molecule, the zone of inhibition at 1000 µg/mL in assay [1] (setting [8]) was determined as 27 mm; in assay [2] it was 5.24 ± 1.16 mm. Besides, the MIC in assay [3] and in assay [4] was 0.78 µg/mL (≈ 2.35 µM) throughout.
On to `O=C1C(=O)N(Cc2cn(CCOc3cc(=O)oc4ccccc34)nn2)c2ccc(Br)cc21` [Compound 6a4, 5-bromo-1-((1-(2-((2-oxo-2H-chromen-4-yl)oxy)ethyl)-1H-1,2,3-triazol-4-yl)methyl)indoline-2,3-dione], for which the inhibition at 20 µM in assay [5] is 22.7 ± 3.87%; in assay [6], 4.57 ± 0.87%. Besides, in assay [1] (setting [8]), the zone of inhibition at 1000 µg/mL is 12 to 20 mm. Besides, the “Antibacterial activity in words” value in assay [1] is “showed activity”. In addition, in assay [3], the MIC amounted to 12.5 µg/mL (≈ 25.2 µM).
Molecule `O=C1C(=O)N(Cc2cn(CCCOc3cc(=O)oc4ccccc34)nn2)c2ccc(Cl)cc21` [Compound 6b3, 5-chloro-1-((1-(3-((2-oxo-2H-chromen-4-yl)oxy)propyl)-1H-1,2,3-triazol-4-yl)methyl)indoline-2,3-dione] showed an IC50 in assay [5] of 11.3 ± 1.16 µM. Also, the inhibition at 20 µM was determined as 61.6 ± 7.24% in assay [5] and 31.5 ± 3.24% in assay [6]. For the same molecule, the results for the zone of inhibition at 1000 µg/mL in assay [1] (setting [8]) and in assay [2] were 10.3 ± 1.15 mm and 11.2 ± 1.16 mm, respectively. The “Antibacterial activity in words” value in assay [1] is recorded as “only modest antibacterial effect”.
In turn, `O=C1C(=O)N(Cc2cn(CCCOc3cc(=O)oc4ccccc34)nn2)c2ccc(Br)cc21` [Compound 6b4, 5-bromo-1-((1-(3-((2-oxo-2H-chromen-4-yl)oxy)propyl)-1H-1,2,3-triazol-4-yl)methyl)indoline-2,3-dione] had an IC50 in assay [5] of 13.3 ± 2.19 µM. In addition, the inhibition at 20 µM in assay [5] came out at 66.2 ± 8.11%; in assay [6], 22.9 ± 2.11%. For the same molecule, the zone of inhibition at 1000 µg/mL in assay [1] (ATCC25923, read-out: Staphylococcus aureus ATCC 25923 ZOI, 60 µL of 1 mg/mL per well, ZOI including the well (6 mm), ± SD, n = 3, ciprofloxacin disk 5 μg) was determined as 20 mm; in assay [2], 14 mm. Further, the “Antibacterial activity in words” value in assay [1] is listed as “moderate antibacterial effects”. Further, the MIC in assay [3] was 6.25 µg/mL (≈ 12.3 µM); in assay [4], 25 µg/mL (≈ 49.1 µM).
Turning to `O=C1C(=O)N(Cc2cn(CCCOc3cc(=O)oc4ccccc34)nn2)c2ccc(I)cc21` [Compound 6b5, 5-iodo-1-((1-(3-((2-oxo-2H-chromen-4-yl)oxy)propyl)-1H-1,2,3-triazol-4-yl)methyl)indoline-2,3-dione], in assay [5], the IC50 was found to be 14.8 ± 1.44 µM and the inhibition at 20 µM was found to be 61.6 ± 7.49%. Moreover, the inhibition at 20 µM in assay [6] was determined as 27.6 ± 1.49%. Besides, the “Antibacterial activity in words” value in assay [1] was “largely inactive”. In assay [2], the zone of inhibition at 1000 µg/mL was 14.8 ± 1.44 mm.
On to `O=C1C(=O)N(Cc2cn(CCCCOc3cc(=O)oc4ccccc34)nn2)c2ccccc21` [Compound 6c1, 1-((1-(4-((2-oxo-2H-chromen-4-yl)oxy)butyl)-1H-1,2,3-triazol-4-yl)methyl)indoline-2,3-dione], for which, in assay [5], the IC50 is 1.74 ± 0.29 µM, the “Selectivity BChE/AChE” value was 8.78 and the inhibition at 20 µM was determined as 84.5 ± 8.46%. Further, in assay [6], it took 15.3 ± 1.22 µM to reach half-maximal inhibition (IC50) and the inhibition at 20 µM was 67.1 ± 3.27%. Also, the “α value (affinity constant)” value in assay [7] (from Lineweaver–Burk plot) is given as “greater than 1”. Further, the Type of inhibition result in assay [7] (substrate 1–8 mM, inhibitor 4, 8, 12 μM) is reported as “mixed-type inhibition”. Moreover, the zone of inhibition at 1000 µg/mL in assay [1] (setting [8]) was found to be 8.67 ± 1.15 mm. Also, in assay [1], the “Antibacterial activity in words” value is recorded as “only weak antibacterial activity”. Besides, in assay [2], the zone of inhibition at 1000 µg/mL worked out at 1.74 ± 0.29 mm.
As for `O=C1C(=O)N(Cc2cn(CCCCOc3cc(=O)oc4ccccc34)nn2)c2ccc(F)cc21` [Compound 6c2, 5-fluoro-1-((1-(4-((2-oxo-2H-chromen-4-yl)oxy)butyl)-1H-1,2,3-triazol-4-yl)methyl)indoline-2,3-dione], in assay [5], the IC50 came out at 5.51 ± 1.38 µM, the “Selectivity BChE/AChE” value is listed as 3.11 and the inhibition at 20 µM turned out to be 79.1 ± 5.49%. In assay [6], the IC50 was 17.1 ± 1.65 µM and the inhibition at 20 µM is 61 ± 3.49%. Moreover, in assay [1] (setting [8]), the zone of inhibition at 1000 µg/mL came to 12 ± 2.65 mm. In assay [1], the “Antibacterial activity in words” value is given as “only weak antibacterial activity”. In addition, the zone of inhibition at 1000 µg/mL in assay [2] is 5.51 ± 1.38 mm.

In general, MIC refers to the lowest concentration found to suppress growth. By inhibition is commonly meant the relative decrease from the control value, in per cent. A word on the IC50: it is the concentration at which inhibition is half-maximal. The low end stands for inhibition by little substance, the high end for a need for much substance.
